These results are taken from patent US20240059688A1, “CONOLIDINE ANALOGUES AS SELECTIVE ACKR3 MODULATORS FOR THE TREATMENT OF CANCER” (Luxembourg Institute of Health (LIH), priority 2020, published 2024).

A word on the IC50: it is the point on the concentration scale where inhibition reaches its midpoint. Low readings indicate greater potency, high ones weaker potency. One may read the EC50 as the concentration giving half of the maximal effect.

The target in assay [1] is T1, ACKR3 (Homo sapiens, UniProt P25106). Put plainly: NanoBiT β-arrestin-1 recruitment, receptor selectivity panel, ACKR3. The assay is classed as cell-based. Also noted: expressed in transfected cells; host or cells: U87. The conditions noted are these: for modulation of ACKR3 in comparison with opioid receptor reference molecules (β-arrestin1 recruitment): NanoBiT, ACKR3 versus MOR, DOR, KOR, NOP, FIG. 5; for activation of ACKR3 (β-arrestin-1 recruitment) in receptor panel: concentration of 1 μM, FIG. 3 section A. On the procedure: To further assess the selectivity profile of the compounds of the invention towards ACKR3, the ability to activate the 21 classical and 4 atypical chemokines receptors and related receptors was tested using the NanoBiT assay based β-arrestin-1 recruitment described previously. The 4 classical opioid receptors described above were also included in the experimental setup. The compounds WW-1 (conolidine) and WW-12 were tested at three different concentrations, 1 μM, 3 μM and 10 μM.
The ability of the compounds of the invention to activate ACKR3 and classical opioid receptors with reference synthetic molecules and approved pain medications such as morphine, fentanyl or buprenorphine that are known to modulate the classical opioid receptors MOR, DOR, KOR and NOP was also tested in NanoBiT based β-arerstin1 recruitment assay. […] The results are depicted in FIG. 5.
(§1) Ligand-induced β-arrestin recruitment to chemokine and opioid receptors was monitored by NanoLuc complementation assay (NanoBiT, Promega). In brief, 1.2×10^6 U87 cells were plated in 10-cm culture dishes and 48 hours later co-transfected with pNBe vectors encoding GPCRs (ACKR3, MOR, DOR, KOR, or NOP) C-terminally tagged with SmBiT and human β-arrestin-1 (arrestin-2) or β-arrestin-2 (arrestin-3) N-terminally fused to LgBiT. 48 hours post-transfection cells were harvested, incubated 25 minutes at 37° C. with Nano-Glo Live Cell substrate diluted 200-fold and distributed into white 96-well plates (5×10^4 cells per well). Ligand-induced, β-arrestin to GPCRs was evaluated with a Mithras LB940 luminometer (Berthold Technologies, running on MicroWin 2010 5.19 software (Mikrotek Laborsysteme)) for 20 minutes.
For single dose screening experiments on all chemokine receptors(FIG. 3), the results are represented as percentage of signal monitored with 100 nM of one known agonist chemokine listed in the IUPHAR repository of chemokine receptor ligands which was added as positive control.
Target sequence in this assay (P25106 whole entry): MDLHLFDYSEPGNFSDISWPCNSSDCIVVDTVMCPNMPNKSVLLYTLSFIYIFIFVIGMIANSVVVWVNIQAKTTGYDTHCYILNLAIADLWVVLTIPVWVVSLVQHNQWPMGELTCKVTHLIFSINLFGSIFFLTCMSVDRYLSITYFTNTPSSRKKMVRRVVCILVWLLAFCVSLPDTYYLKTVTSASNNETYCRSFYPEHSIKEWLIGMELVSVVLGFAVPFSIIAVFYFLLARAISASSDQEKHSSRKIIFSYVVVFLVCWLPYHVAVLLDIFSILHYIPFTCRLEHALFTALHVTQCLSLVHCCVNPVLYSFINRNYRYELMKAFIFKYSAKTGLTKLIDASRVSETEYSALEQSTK
Target sequence in this assay (P49407 whole entry partner): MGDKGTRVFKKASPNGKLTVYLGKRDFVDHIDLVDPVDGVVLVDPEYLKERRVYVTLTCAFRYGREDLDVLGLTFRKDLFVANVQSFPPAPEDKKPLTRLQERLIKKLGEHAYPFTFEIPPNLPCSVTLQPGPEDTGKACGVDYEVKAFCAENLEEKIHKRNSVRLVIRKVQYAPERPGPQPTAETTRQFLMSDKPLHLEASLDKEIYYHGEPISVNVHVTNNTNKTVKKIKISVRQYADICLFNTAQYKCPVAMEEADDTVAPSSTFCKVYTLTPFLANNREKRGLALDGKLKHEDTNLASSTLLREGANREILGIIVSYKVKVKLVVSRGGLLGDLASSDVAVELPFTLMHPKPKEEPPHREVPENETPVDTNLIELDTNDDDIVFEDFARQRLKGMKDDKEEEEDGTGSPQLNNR
In general terms: Arrestin recruitment assays detect the binding of arrestin to an activated receptor.

Another assay concerns the target MOR (Homo sapiens, UniProt P35372). Put plainly: NanoBiT-based β-arrestin-2 recruitment assay, MOR. Type of assay: cell-based. Particulars: concentration range 0.15 nM to 80 μM; reference BAM22. Also noted: expressed in transfected cells; host or cells: U87. Here is the method:
The ability of the different molecules to activate the four opioid receptors MOR, DOR, KOR and NOP that are known to mediate in vivo analgesic effects was tested using the NanoBiT-based β-arrestin-2 recruitment assay in a concentration range of 0.15 nM to 80 μM. For each of these receptors a reference ligand corresponding to an endogenous opioid peptide i.e. Met-enkephalin, BAM22, Dynorphin A and Nociceptin, respectively was included.
as §1
For concentration-response curves (FIG. 2), the signal recorded with a saturating concentration of full agonist for each receptor was set as 100%. […]

In assay [2] the target is T1, ACKR3. In words: Binding competition assay with CXCL12-AF647 on U87-ACKR3 cells. Also noted: expressed in transfected cells; host or cells: U87-ACKR3 (ACKR3-negative U87 as control). Particulars: 5 nM CXCL12-AF647, FIG. 1 section D. An excerpt: Dead cells were excluded using Zombie Green viability dye (BioLegend). […] Ligand binding was quantified by mean fluorescence intensity on a BD FACS Fortessa cytometer (BD Biosciences) using FACS Diva 8.01 (BD Biosciences).
Target sequence in this assay (P25106 whole entry): as the sequence (P25106 whole entry) above

Assay [3] concerns the target T1, ACKR3. In words: ACKR3-mediated uptake of Cy5-labeled BAM22 in U87-ACKR3 cells (imaging flow cytometry). Particulars: concentration-dependent, FIG. 7. The assay is classed as cell-based. Further details: expressed in transfected cells; host or cells: U87-ACKR3 (ACKR3-negative U87 as control). On the procedure:
U87-ACKR3 cells were distributed into 96-well plates (2×10^5 cells per well in Opti-MEM). After 15-minute incubation at 37° C. with WW-1 or WW-12 or controls, Cy5-labeled BAM22 was added, incubated for 40 minutes at 37° C. and washed twice with FACS buffer. Dead cells were excluded using Zombie Green viability dye. Images of 1×10^4 in-focus living single cells were acquired with an ImageStream MKII imaging flow cytometer (Amnis, running on the INSPIRE Mark II software (EMD Millipore)) using 40× magnification (60× magnification for smNPCs). Samples were analyzed using Ideas6.2 software. The number of spots per cell was determined using a mask-based software wizard.
Target sequence in this assay (P25106 whole entry): as above

In assay [4] the target is T1, ACKR3. Put plainly: NanoBiT-based β-arrestin-2 recruitment assay, human ACKR3 in U87 cells. The assay is classed as cell-based. Also noted: expressed in transfected cells; host or cells: U87. Particulars: for agonist efficacy at hACKR3 compared to CXCL-12: NanoBiT β-arrestin recruitment, reference ligand CXCL-12; for EC50: NanoBiT, U87 cells, FIG. 1 section A, read-out: EC50, β-arrestin-2 recruitment to hACKR3. On the procedure:
Concentration-response studies were performed with molecules WW-1 (conolidine) and WW-12 on the human and mouse ACKR3 receptors in U87 cells using a NanoBiT-based β-arrestin-2 recruitment assay […] to evaluate their efficacy and potency towards the two receptors.
as §1
Target sequence in this assay (P25106 whole entry): as above
Target sequence in this assay (P32121 whole entry partner): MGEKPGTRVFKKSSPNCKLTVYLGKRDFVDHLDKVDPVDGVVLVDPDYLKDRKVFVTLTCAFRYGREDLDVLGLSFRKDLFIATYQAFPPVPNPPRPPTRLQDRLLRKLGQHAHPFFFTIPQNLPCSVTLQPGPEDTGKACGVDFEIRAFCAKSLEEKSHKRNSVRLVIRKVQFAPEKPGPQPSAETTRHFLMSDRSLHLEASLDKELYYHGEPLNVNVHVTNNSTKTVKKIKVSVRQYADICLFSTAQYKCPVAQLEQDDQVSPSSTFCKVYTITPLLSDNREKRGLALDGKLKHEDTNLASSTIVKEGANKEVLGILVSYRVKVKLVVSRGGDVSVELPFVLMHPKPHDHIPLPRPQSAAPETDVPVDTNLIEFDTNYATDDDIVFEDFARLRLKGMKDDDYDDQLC
For concentration-response curves (FIG. 2), the signal recorded with a saturating concentration of full agonist for each receptor was set as 100%. To evaluate the antagonist properties of ligands, full agonists of each receptor (50 nM BAM22 for MOR, 50 nM dynorphin A for KOR, 70 nM met-enkephalin for DOR, 70 nM nociceptin for NOP and 4 nM CXCL12 for ACKR3) were added after the 20-minute incubation with the ligands.

MOR, sequence (P35372 whole entry): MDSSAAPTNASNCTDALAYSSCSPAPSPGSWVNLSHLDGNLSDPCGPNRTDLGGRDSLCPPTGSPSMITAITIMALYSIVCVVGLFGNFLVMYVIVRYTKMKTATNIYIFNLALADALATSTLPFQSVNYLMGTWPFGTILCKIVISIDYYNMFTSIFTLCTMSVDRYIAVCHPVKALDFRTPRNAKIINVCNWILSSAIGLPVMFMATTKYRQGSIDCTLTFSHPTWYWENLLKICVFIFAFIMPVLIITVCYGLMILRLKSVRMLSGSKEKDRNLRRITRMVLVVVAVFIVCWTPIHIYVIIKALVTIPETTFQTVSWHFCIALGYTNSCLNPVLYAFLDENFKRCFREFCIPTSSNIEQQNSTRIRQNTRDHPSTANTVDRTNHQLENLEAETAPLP

In the case of `C/C=C1/CN2CC[C@H]1C(=O)c1[nH]c3ccccc3c1C2` [WW-1, (4E,5R)-4-ethylidene-1,4,5,7-tetrahydro-2,5-ethanoazocino[4,3-b]indol-6(3H)-one], on ACKR3 [1], the “modulation of ACKR3 in comparison with opioid receptor reference molecules (β-arrestin1 recruitment)” value is “specific ACKR3 activators” and the “activation of ACKR3 (β-arrestin-1 recruitment) in receptor panel” value is reported as “activated ACKR3”. For the same compound, the “activation of MOR (β-arrestin-2 recruitment)” value on MOR is on record as “not active”. The same compound returned a concentration for half-maximal inhibition (IC50) on ACKR3 [2] of 39.9 µM. In addition, at ACKR3 [3], the “inhibition of uptake of Cy5-labelled BAM22 by ACKR3” value is “able to restrain the uptake”. In addition, on ACKR3 [4], the “agonist efficacy at hACKR3 compared to CXCL-12” value is given as “full agonists” and the concentration for a half-maximal effect (EC50) turned out to be 16.6 µM. Further, the “agonist efficacy at hACKR3 compared to CXCL-12” value at ACKR3 [4] (listed as conolidine) was “full agonist”.

Regarding `C/C=C1/CN(CCCCC)CC[C@H]1C(=O)c1cc2ccccc2[nH]1` [WW-12, [(3E,4R)-3-ethylidene-1-pentylpiperidin-4-yl](1H-indol-2-yl)methanone], on ACKR3 [1], the “modulation of ACKR3 in comparison with opioid receptor reference molecules (β-arrestin1 recruitment)” value is listed as “specific ACKR3 activators” and the “activation of ACKR3 (β-arrestin-1 recruitment) in receptor panel” value is given as “activated ACKR3”. At MOR, the “activation of MOR (β-arrestin-2 recruitment)” value was “not active”. In addition, on ACKR3 [2], the half-inhibitory concentration (IC50) was 2.7 µM. Also, on ACKR3 [3], the “inhibition of uptake of Cy5-labelled BAM22 by ACKR3” value is recorded as “able to restrain the uptake”. Further, at ACKR3 [4], the “agonist efficacy at hACKR3 compared to CXCL-12” value is on record as “full agonists” and the concentration giving a half-maximal response (EC50) is 0.7 µM.
